# Patent US8912202B2, “N-(benzimimdazol-2-yl)-cyclopropane carboxamides as lysophosphatidic acid antagonists” (Merck Patent GmbH, priority 2011, dated 2014)
# Target: T1, LPA2R (Homo sapiens, UniProt Q9HBW0)
# T1 construct: expressed in transfected cells; host or cells: U2OS
# Assay: LPA2R-Calciumflux assay (FLIPR, intracellular calcium mobilisation after LPA)
# Type: cell-based
# Details: U2OS cells recombinant expressing LPA2R; antagonism of LPA-induced calcium flux; racemate of the two trans enantiomers unless marked enantiomer
# Source text: The assay detects intra cellular calcium which is generated by cells upon activation of the LPA2 receptor by its ligand LPA. This transient calcium mobilization can be monitored using a commercial calcium detection kit (e.g. from Molecular Devices). The main component of such a kit is a dye, which becomes fluorescent when calcium is present—a transient fluorescence signal after addition of a ligand to a test well are the result. Readers like the FLIPR (Molecular Devices) can be used to monitor such transient “Ca-flux” signals.
# The signals are calculated according to peak maximum minus base line.
# Compounds which are antagonists of LPA lead to a decreased mobilisation of intracellular calcium and thus to a lower signal. The assay is performed in microplates (384 wells per plate).
# LPA2R-Calciumflux Assay Protocol
# The assay is run according to the following procedure:
# 50 uL seed cells (10000 cells/well in DMEM buffer)
# • Incubate 24 h at 37° C., 10% CO2 • aspirate medium 50 uL add calcium dye 1×HBSS/HEPES buffer • incubate 1 h at 37° C. (“loading”) • equilibrate 10 min at RT 5 uL add compounds in HEPES buffer • shake 10 sec. at 1000 rpm • incubate 15 min at RT 20 uL add LPA (in the FLIPR Tetra) in Krebs-buffer/BSA & measurement
# The cells are seeded in DMEM buffer (DMEM, 10% FCS, 10 mM HEPES, 1% Pen/Strep).
# Dye loading is done in HBSS/HEPES buffer (100 mL 10×HBSS+20 mL 1M HEPES+880 mL water, pH 7.4)
# The LPA is added in Krebs/BSA buffer (120 mM NaCl, 5 mM KCl, 0.62 mM MgSO4, 1.8 mM CaCl2, 10 mM HEPES, 6 mM D(+)-Glucose, 0.2% BSA, pH 7.4).
# The compounds are pre-diluted in HEPES buffer (20 mM, pH 7.4), whereby the final DMSO content in the assay is kept at 1%. The compounds are pre-diluted in order to generate dose response series on the microplates. The dose response series consist of 10 concentrations for each compound from 30 uM final to 1 nM final. From all compound wells the resulting signals are referred to control wells (located on each plate besides the compound wells) in terms of % activity.
# From these % activity values—along with the corresponding compound concentrations—IC50 values are fitted for each compound using standard fitting programs such as Graphpad Prism. Here the method “log(inhibitor) vs. response—Variable slope” is used.
# T1 sequence (Q9HBW0 whole entry): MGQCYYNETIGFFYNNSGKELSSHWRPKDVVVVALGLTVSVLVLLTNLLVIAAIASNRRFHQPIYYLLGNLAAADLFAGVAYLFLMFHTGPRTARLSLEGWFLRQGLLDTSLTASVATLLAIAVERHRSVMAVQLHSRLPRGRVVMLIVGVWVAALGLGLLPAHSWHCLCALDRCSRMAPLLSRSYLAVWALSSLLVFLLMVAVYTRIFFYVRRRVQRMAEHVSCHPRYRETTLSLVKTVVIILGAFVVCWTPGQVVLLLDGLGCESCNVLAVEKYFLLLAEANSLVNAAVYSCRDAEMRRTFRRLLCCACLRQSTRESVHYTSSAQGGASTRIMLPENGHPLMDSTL
row,IC50 [nM],SMILES
1,> 10000,O=C(Nc1n[nH]c2ccccc12)C1CC1c1ccccc1 (racemic) [2-Phenyl-cyclopropane-carboxylic acid (1H-indazol-3-yl)-amide]
2,10 to 100,"O=C(Nc1nc2cccnc2[nH]1)C1CC1c1ccccc1 (racemic) [2-Phenyl-cyclopropane-carboxylic acid (3H-imidazo[4,5-b]pyridin-2-yl)-amide]"
3,> 10000,"O=C(Nc1nc2ccncc2[nH]1)C1CC1c1ccccc1 (racemic) [2-Phenyl-cyclopropane-carboxylic acid (3H-imidazo[4,5-c]pyridin-2-yl)-amide]"
4,100 to 1000,"O=C(Nc1nc2c(Cl)cc(Cl)cc2[nH]1)C1CC1c1ccccc1 (racemic) [2-Phenyl-cyclopropane-carboxylic acid (4,6-dichloro-1H-benzoimidazol-2-yl)-amide]"
5,10 to 100,Nc1cccc2[nH]c(NC(=O)C3CC3c3ccccc3)nc12 (racemic) [2-Phenyl-cyclopropane-carboxylic acid (4-amino-1H-benzoimidazol-2-yl)-amide]
6,10 to 100,"O=C(Nc1nc2ccnc(Cl)c2[nH]1)C1CC1c1ccccc1 (racemic) [2-Phenyl-cyclopropane-carboxylic acid (4-chloro-3H-imidazo[4,5-c]pyridin-2-yl)-amide]"
7,10 to 100,O=C(Nc1nc2c([N+](=O)[O-])cccc2[nH]1)C1CC1c1ccccc1 (racemic) [2-Phenyl-cyclopropane-carboxylic acid (4-nitro-1H-benzoimidazol-2-yl)-amide]
8,100 to 1000,O=C(Nc1nc2c([N+](=O)[O-])cc(C(F)(F)F)cc2[nH]1)C1CC1c1ccccc1 (racemic) [2-Phenyl-cyclopropane-carboxylic acid (4-nitro-6-trifluoromethyl-1H-benzoimidazol-2-yl)-amide]
9,100 to 1000,"O=C(Nc1nc2cc(Cl)c(Cl)cc2[nH]1)C1CC1c1ccccc1 (racemic) [2-Phenyl-cyclopropane-carboxylic acid (5,6-dichloro-1H-benzoimidazol-2-yl)-amide]"
10,10 to 100,"Cc1cc2nc(NC(=O)C3CC3c3ccccc3)[nH]c2cc1C (racemic) [2-Phenyl-cyclopropane-carboxylic acid (5,6-dimethyl-1H-benzoimidazol-2-yl)-amide]"
11,1000 to 10000,NCc1ccc2[nH]c(NC(=O)C3CC3c3ccccc3)nc2c1 (racemic) [2-Phenyl-cyclopropane-carboxylic acid (5-aminomethyl-1H-benzoimidazol-2-yl)-amide]
12,10 to 100,N#Cc1ccc2nc(NC(=O)C3CC3c3ccccc3)[nH]c2c1 (racemic) [2-Phenyl-cyclopropane-carboxylic acid (5-cyano-1H-benzoimidazol-2-yl)-amide]
13,10 to 100,CCc1ccc2[nH]c(NC(=O)C3CC3c3ccccc3)nc2c1 (racemic) [2-Phenyl-cyclopropane-carboxylic acid (5-ethyl-1H-benzoimidazol-2-yl)-amide]
14,10 to 100,COc1ccc2[nH]c(NC(=O)C3CC3c3ccccc3)nc2c1 (racemic) [2-Phenyl-cyclopropane-carboxylic acid (5-methoxy-1H-benzoimidazol-2-yl)-amide]
15,< 10,"O=C(Nc1nc2cc(Br)cnc2[nH]1)C1CC1c1ccccc1 (racemic) [2-Phenyl-cyclopropane-carboxylic acid (6-bromo-3H-imidazo[4,5-b]pyridin-2-yl)-amide]"
16,10 to 100,O=C(Nc1nc2cc(Cl)ccc2[nH]1)C1CC1c1ccccc1 (racemic) [2-Phenyl-cyclopropane-carboxylic acid (6-chloro-1H-benzoimidazol-2-yl)-amide]
17,100 to 1000,Cc1ccc2nc(NC(=O)C3CC3c3ccccc3)[nH]c2c1 (racemic) [2-Phenyl-cyclopropane-carboxylic acid (6-methyl-1H-benzoimidazol-2-yl)-amide]
18,10 to 100,O=C(Nc1nc2cc(C(F)(F)F)ccc2[nH]1)C1CC1c1ccccc1 (racemic) [2-Phenyl-cyclopropane-carboxylic acid (6-trifluoromethyl-1H-benzoimidazol-2-yl)-amide]
